Results taken from patent publication US10745420B2, “Tetrahydropyrido[4,3-d]pyrimidine inhibitors of ATR kinase” (Board of Regents, The University of Texas System, priority 2017, dated 2020).
pIC50: −log10 of the molar value. Like-named read-outs stand apart in the source and are kept apart here.

How the values were obtained:
[1] = tested on: ATR-driven phosphorylation of Chk1 kinase at Serine 345; experiment: pCHK1 cellular assay (CHK1 p-Ser345 AlphaScreen SureFire) in HT-29 cells; format: cell-based; conditions: 4-nitroquinoline N-oxide 12 uM, read-out: pCHK1 Cell IC50
Experimental: Inhibitors of ATR kinase are effective at inhibiting the ATR-driven phosphorylation of the downstream target Chk1 kinase at Serine 345, following the addition of 4-nitroquinoline N-oxide, a chemical used to induce DNA damage. Cellular IC50 for the inhibitors of ATR described herein were measured in HT-29 colorectal adenocarcinoma cells. HT-29 cells were routinely maintained in McCoy's 5A media (ATCC Catalog #30-2007) supplemented with 10% fetal bovine serum (Sigma Catalog # F2442) and 1× Penicillin-Streptomycin (Gibco Catalog #15140-122) using a humidified incubator (37° C., 5% CO2, and ambient O2).
In preparation for the CHK1 (p-Ser345) ALPHASCREEN® SUREFIRE® assay, cells were harvested and resuspended in McCoy's 5A media supplemented with 10% fetal bovine serum and 1× Penicillin-Streptomycin. Cells were seeded onto a 384-well black CELLSTAR® Tissue Culture Plate (VWR Catalog #89085-314) at a density of 13,000 cells/well in a volume of 40 uL. The microplate was incubated overnight (approximately 20 hours) at 37° C. with 5% CO2 and ambient O2. Stock solutions of the test compounds were prepared in 100% DMSO (Sigma, Catalog # D2650) and serially diluted 1:3 using 100% DMSO. Compounds were additionally diluted 1:33 in culture medium, and 10 ul/well were transferred to the tissue culture plate. Following the compound addition the microplate was incubated at 37° C. for 90 minutes. 10 uL of 4-nitroquinoline N-oxide (Sigma Aldrich Catalog # N8141-1G) diluted in media (final concentration 12 uM) were added to the tissue culture plate followed by a 120 minute incubation at 37° C. The cells were then washed with PBS and lysed using 10 uL/well SUREFIRE® Kit lysis buffer diluted to 1× in water (PerkinElmer Catalog # TGRCHK1S50K), with mixing on an orbital shaker at 500 rpm for 20 min at RT. Lysates were frozen at −20° C. overnight.
4 uL/well of lysate was then transferred from the tissue culture plate to a 384-well, white, low volume, PROXIPLATE™ (PerkinElmer Catalog #600828). 5 uL/well of the acceptor bead solution, prepared by diluting SUREFIRE® Kit activation buffer (PerkinElmer Catalog # TGRCHK1S50K) and ALPHASCREEN® Protein A acceptor beads (PerkinElmer Catalog #6760617R) in SUREFIRE® Kit reaction buffer (PerkinElmer Catalog # TGRCHK1S50K), were added to the lysates under subdued light and incubated at room temperature for 120 min. 2 uL/well of the donor bead solution, prepared by diluting ALPHASCREEN® Streptavidin donor beads (PerkinElmer Catalog #6760617R) in SUREFIRE® Kit dilution buffer (PerkinElmer Catalog # TGRCHK1S50K), were added under subdued light and incubated at room temperature for an addition 120 minutes. The pCHK1 ALPHASCREEN® signal was measured using an ENVISION® plate reader (PerkinElmer). IC50 values were calculated using a four-parameter logistic curve fit using Genedata Screener software. Percent of control for each compound concentration was calculated by the following formula: 100*(Compound-Min)/(Max-Min) where “Max” is the high control, DMSO, and “Min” is the low control, 5 uM ATR inhibitor.

ATR/ATRIP complex = ATR/ATRIP complex (Homo sapiens (Human), UniProt Q13535); experiment: ATR/ATRIP enzymatic assay (Caliper-based); format: biochemical; conditions: FAM-labeled RAD17 peptide, ATP; read-out: ATR/ATRIP Enzyme IC50
ATR/ATRIP complex, sequence (Q13535 whole entry): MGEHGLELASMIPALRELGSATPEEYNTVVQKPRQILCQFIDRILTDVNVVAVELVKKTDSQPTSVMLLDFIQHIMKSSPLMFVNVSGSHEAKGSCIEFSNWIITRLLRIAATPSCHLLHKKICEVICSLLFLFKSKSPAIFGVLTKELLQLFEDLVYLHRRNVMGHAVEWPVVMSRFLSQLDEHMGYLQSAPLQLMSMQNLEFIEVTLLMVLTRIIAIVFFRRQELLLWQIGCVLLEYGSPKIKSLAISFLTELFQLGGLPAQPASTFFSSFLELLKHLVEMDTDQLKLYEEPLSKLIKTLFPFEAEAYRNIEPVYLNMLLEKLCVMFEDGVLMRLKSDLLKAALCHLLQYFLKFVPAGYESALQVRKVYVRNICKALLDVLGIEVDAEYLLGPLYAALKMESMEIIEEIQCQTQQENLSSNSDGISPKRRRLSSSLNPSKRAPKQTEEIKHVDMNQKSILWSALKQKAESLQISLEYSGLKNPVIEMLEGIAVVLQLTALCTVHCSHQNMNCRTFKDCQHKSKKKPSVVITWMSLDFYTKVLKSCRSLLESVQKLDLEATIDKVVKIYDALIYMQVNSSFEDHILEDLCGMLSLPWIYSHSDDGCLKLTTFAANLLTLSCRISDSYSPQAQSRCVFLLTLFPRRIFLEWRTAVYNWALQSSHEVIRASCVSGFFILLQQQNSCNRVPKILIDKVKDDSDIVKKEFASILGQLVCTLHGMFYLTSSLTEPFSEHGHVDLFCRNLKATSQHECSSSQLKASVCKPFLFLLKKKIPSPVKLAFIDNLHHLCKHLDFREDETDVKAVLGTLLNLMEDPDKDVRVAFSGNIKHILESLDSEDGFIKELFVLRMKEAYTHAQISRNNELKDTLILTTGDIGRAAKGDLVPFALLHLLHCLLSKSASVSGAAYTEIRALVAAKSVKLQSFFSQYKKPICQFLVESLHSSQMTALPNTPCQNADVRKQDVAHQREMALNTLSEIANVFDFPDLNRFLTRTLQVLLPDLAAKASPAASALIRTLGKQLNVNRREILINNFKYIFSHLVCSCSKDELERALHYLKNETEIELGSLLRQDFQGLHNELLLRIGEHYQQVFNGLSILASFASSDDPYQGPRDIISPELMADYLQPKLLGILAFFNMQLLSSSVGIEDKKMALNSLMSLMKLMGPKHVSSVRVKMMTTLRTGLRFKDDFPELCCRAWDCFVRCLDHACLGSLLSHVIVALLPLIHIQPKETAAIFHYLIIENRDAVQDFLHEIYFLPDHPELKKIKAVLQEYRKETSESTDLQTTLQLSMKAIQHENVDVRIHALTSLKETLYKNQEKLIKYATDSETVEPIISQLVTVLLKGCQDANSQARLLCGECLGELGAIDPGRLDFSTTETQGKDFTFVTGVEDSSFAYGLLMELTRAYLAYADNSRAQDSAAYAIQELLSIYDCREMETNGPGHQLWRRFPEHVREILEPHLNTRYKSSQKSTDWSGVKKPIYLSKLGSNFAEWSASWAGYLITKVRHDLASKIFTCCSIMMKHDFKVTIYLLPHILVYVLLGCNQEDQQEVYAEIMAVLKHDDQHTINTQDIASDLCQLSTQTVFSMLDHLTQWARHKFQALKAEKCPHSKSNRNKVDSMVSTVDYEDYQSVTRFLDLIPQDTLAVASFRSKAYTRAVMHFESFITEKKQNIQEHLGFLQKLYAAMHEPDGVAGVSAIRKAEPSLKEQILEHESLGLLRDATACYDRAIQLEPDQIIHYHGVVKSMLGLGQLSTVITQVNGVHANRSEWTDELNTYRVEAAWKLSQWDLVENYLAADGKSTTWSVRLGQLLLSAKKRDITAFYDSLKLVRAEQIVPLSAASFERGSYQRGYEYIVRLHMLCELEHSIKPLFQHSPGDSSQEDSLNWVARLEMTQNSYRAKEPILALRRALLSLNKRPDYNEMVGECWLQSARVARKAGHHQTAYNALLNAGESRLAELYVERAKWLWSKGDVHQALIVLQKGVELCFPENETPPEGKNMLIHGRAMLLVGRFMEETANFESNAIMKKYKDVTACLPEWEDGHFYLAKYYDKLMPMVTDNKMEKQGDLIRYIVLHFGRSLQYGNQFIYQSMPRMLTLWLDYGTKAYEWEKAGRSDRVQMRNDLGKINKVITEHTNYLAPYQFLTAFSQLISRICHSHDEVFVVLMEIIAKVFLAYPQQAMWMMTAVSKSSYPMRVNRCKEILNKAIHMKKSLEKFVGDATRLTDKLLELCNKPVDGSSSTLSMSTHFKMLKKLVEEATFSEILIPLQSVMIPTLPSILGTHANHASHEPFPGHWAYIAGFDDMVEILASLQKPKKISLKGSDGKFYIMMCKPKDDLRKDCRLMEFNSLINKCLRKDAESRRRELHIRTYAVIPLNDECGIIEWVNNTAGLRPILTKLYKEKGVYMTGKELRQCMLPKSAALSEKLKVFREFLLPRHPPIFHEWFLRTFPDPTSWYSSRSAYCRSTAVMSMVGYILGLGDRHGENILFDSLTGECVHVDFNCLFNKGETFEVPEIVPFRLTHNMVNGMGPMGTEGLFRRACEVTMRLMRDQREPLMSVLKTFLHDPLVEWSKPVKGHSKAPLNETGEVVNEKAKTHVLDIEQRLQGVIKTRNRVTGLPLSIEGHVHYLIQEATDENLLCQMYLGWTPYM
ATR/ATRIP complex, sequence (Q8WXE1 whole entry partner): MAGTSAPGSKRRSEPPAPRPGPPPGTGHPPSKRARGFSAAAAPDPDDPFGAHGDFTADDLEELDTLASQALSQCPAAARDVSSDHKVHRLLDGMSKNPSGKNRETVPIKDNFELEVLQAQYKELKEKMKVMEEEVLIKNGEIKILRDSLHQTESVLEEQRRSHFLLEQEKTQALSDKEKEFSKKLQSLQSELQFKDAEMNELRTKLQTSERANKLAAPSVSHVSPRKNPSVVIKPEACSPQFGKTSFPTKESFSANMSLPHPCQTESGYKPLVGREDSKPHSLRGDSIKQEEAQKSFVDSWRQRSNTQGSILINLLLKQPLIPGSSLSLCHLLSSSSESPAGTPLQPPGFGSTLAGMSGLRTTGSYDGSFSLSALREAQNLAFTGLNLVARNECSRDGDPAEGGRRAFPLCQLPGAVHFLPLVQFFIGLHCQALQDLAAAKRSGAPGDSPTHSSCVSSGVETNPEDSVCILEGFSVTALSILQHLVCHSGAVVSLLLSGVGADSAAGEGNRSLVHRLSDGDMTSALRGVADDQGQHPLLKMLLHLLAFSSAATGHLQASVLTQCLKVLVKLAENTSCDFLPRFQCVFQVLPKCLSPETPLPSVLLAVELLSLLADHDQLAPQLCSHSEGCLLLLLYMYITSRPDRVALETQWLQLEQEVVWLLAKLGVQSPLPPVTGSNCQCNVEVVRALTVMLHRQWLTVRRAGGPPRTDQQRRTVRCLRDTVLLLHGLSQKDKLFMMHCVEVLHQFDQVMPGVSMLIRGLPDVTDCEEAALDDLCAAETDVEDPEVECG
Experimental: Human full-length FLAG-TEV-ATR and His6-ATRIP were co-expressed in HEK293 cells. The cell pellet (20 g) was harvested and lysed in 100 mL of lysis buffer (20 mM Tris-HCl pH 7.5 at room temperature, 137 mM NaCl, 10% glycerol, 1 mM DTT, 1% (v/v) Tween-20, 0.1% (v/v) NP-40, complete protease inhibitor cocktail tablets, phosphatase inhibitor cocktail tablets, 2 mM MgCl2, 0.2 mM EDTA, and 1 mM ATP). After sonication and centrifugation, the supernatant was incubated at 4° C. for 3 hours with 1 mL of anti-FLAG resin (Sigma catalog # A2220) that had been pre-equilibrated in buffer A (20 mM Tris-HCl pH 7.5 at room temperature, 137 mM NaCl, 10% glycerol, 1 mM DTT, 2 mM MgCl2, and 0.2 mM EDTA). The sample was loaded into a column, and then washed with buffer A three times. Protein was subsequently eluted with 2 ml of buffer B (buffer A+200 μg/ml 3×FLAG peptide).
The ability of new chemical matter to inhibit the ATR catalytic activity in this ATR/ATRIP complex was assessed a Caliper-based assay. A 2× enzyme solution (i.e., 4 nM enzyme) was prepared using 1× Kinase Reaction Buffer (25 mM HEPES pH 8, 0.0055% Brij-35, 10 mM MnCl2, and 1 mM DTT). A 2× peptide solution was then prepared consisting of 10 uM FAM-labeled RAD17 peptide (GL Biochem, catalog #524315) in 1× Kinase Reaction Buffer supplemented with 2 μM ATP. 10 μL of the 2× enzyme solution was transferred to an assay plate containing 60 nL of test compound (from a 3× serial dilution) in 100% DMSO. Following a 30 minute incubation at 28° C., 10 μL of the 2× peptide solution was then transferred to the same assay plate. The reaction was allowed to incubate at 28° C. for 6 hours. After adding 30 μL of stop buffer (100 mM HEPES pH 7.5, 0.015% Brij-35, 0.2% Coating-3 Reagent (PerkinElmer, catalog # PN760050), and 50 mM EDTA), data were collected on a Caliper instrument. […] IC50 values were calculated using the following equation in XLFit: Y=Bottom+(Top-Bottom)/1+(IC50/X)^HillSlope).

[2] = Homo sapiens, HT-29, HT-29 colorectal adenocarcinoma cells

Structure (SMILES) | pIC50 [1, 2] | pIC50 (ATR/ATRIP complex) | pIC50 ([1]; HT-29 colorectal adenocarcinoma cells)
C[C@@H]1Cc2ncnc([C@H]3CCN(S(C)(=O)=O)C(C)(C)C3)c2CN1c1ccnc2[nH]ccc12 (single isomer, unassigned) [Example 48b] | 7.10 |  | 
C[C@@H]1Cc2ncnc(C3CCCN(S(C)(=O)=O)C3)c2CN1c1cc(Cl)nc2[nH]ccc12 (single isomer, unassigned) [Example 51a] |  | 6.25 | 
C[C@@H]1Cc2ncnc(C3CCCN(S(C)(=O)=O)C3)c2CN1c1cc(Cl)nc2[nH]ccc12 (single isomer, unassigned) [Example 51b] |  | 5.66 | 
C[C@@H]1Cc2ncnc(N3CCC(S(C)(=O)=O)CC3)c2CN1c1cc(Cl)nc2[nH]ccc12 [Example 9, (R)-6-(6-Chloro-1H-pyrrolo[2,3-b]pyridin-4-yl)-7-methyl-4-(4-(methylsulfonyl)-piperidin-1-yl)-5,6,7,8-tetrahydropyrido[4,3-d]pyrimidine bis(trifluoroacetate)] |  |  | 7.60
C[C@@H]1Cc2ncnc([C@H]3CCN(S(C)(=O)=O)C3)c2CN1c1ccnc2[nH]ccc12 [Example 57b, (R)-7-methyl-4-((S)-1-(methylsulfonyl)pyrrolidin-3-yl)-6-(1H-pyrrolo[2,3-b]pyridin-4-yl)-5,6,7,8-tetrahydropyrido[4,3-d]pyrimidine] | 6.40 |  | 
C[C@@H]1Cc2ncnc(N3C[C@H]4CC[C@@H](C3)[C@H]4NS(C)(=O)=O)c2CN1c1ccnc2[nH]ccc12 [Example 74, N-((1R,5S,8R)-3-((R)-7-methyl-6-(1H-pyrrolo[2,3-b]pyridin-4-yl)-5,6,7,8-tetrahydropyrido[4,3-d]pyrimidin-4-yl)-3-azabicyclo[3.2.1]octan-8-yl)methanesulfonamide] | 7.51 | 6.55 | 
C[C@@H]1Cc2ncnc(N3CCC(S(C)(=O)=O)CC3)c2CN1c1ccnc2[nH]ccc12 [Example 88, (R)-7-methyl-4-(4-(methylsulfonyl)piperidin-1-yl)-6-(1H-pyrrolo[2,3-b]pyridin-4-yl)-5,6,7,8-tetrahydropyrido[4,3-d]pyrimidine] | 7.07 |  | 
